From US10568925B2, “Extracts of Curcuma amada and uses thereof” (DHARMA BIOMEDICAL, LLC, priority 2015, dated 2020)
Like-named read-outs stand apart in the source and are kept apart here.

What was measured:
[1] = tested on: U-87MG human glioblastoma cell line; assay: MTT cytotoxicity in U-87MG glioblastoma cells; format: cell-based; conditions: 72 hours
Description: Human glioblastoma cell line (U-87MG) was purchased from American Type Culture Collection, Manassas, Va. and the cells were grown in RPMI medium supplemented with 10% fetal bovine serum (FBS) and antibiotics in a humidified 5% CO2 incubator maintained at 37° C. The normal mouse embryonic hypothalamus cell line (mHypoE-N1) was purchased from CELLutions Biosystems, Inc, Burlington, Ontario, Canada and was grown in DMEM, supplemented with 10% FBS and antibiotics in the CO2 incubator.
Glioblastoma (U-87MG) cells were treated with increasing concentrations of CA, temozolomide, etoposide or their combination for 72 hours in 96-well plates. MTT [3-(4,5-Dimethyl thiazol-2-yl)-2,5-diphenyltetrazolium bromide] assay performed with the Cell Proliferation Kit I (Roche Biochemicals, IN) was used to analyze cytotoxicity of individual drugs/extracts and their combinations. The experiments were repeated four times with three replications for each treatment and the IC50, IC75 and IC90 values were calculated (Ramachandran et al. 2010; Ramachandran et al. 2012). The relative cytotoxicity of CA in normal mouse hypothalamus cell line (mHypoE-N1) was also analyzed to compare the toxicity and specificity of CA in normal and brain tumor cells.
Mean inhibitory concentrations (ICs) and standard deviation estimates were calculated using Microsoft Excel software using data from three separate experiments. The fraction of surviving cells at each concentration of drugs/combinations was used for the analysis of synergism/additiveness/antagonism between drugs/extracts by the CompuSyn software (ComboSyn, Inc., Paramus, N.J.).

RD cell line = assay: RT-PCR gene expression, RD; format: cell-based, human; conditions: 72 h
Description: (§1) FIGS. 20A-20B: Gene expression analysis of apoptotic genes (p53, Bcl-2, Bax and Bak) by RT-PCR in eRMS RD (FIG. 20A) and aRMS SJRH30 (FIG. 20B) cells treated with VBL, CP, CA and their combinations. Total RNA was extracted from cells treated with drugs and their combinations for 72 h and RT-PCR assay performed with 5 μg of RNA using gene specific primers. The house keeping gene GAPDH is also amplified as control.
(§2) mRNA expression of apoptosis-associated genes (Bax, Bcl-2, Bak and p53) and inflammation-associated genes (Cox-2, NF-κB and STATS) were analyzed by reverse transcriptase-polymerase chain reaction (Ramachandran et al. 2012). The expression of a house keeping gene, Glyceraldehyde 3-phosphate dehydrogenase (GAPDH) was used as a control. The relative expression of genes was quantified using gel pictures by the UNSCAN-IT GEL′ software (Silk Scientific, Inc., Orem, Utah). Since the ratios of Bax/Bcl-2, Bak/Bcl-2 and Bax/Bak expression were very much associated with the fate of cells undergoing apoptosis, these estimates were calculated and plotted against drug concentrations (Ramachandran et al. 2012).

[2] = tested on: alveolar (SJRH30) rhabdomyosarcoma cell line; assay: MTT cytotoxicity in alveolar rhabdomyosarcoma cells; format: cell-based, human; conditions: for IC50 / IC90: Homo sapiens
Description: (§3) Both aRMS (SJRH30) and eRMS (RD) cell lines were purchased from American Type Culture Collection, Manassas, Va. SJRH30 and RD cells were grown in Rosewell Park Memorial Institute 1640 (RPMI 1640) and Dulbecco's Modified Eagle's medium (DMEM), respectively, supplemented with 10% FBS and antibiotics in a 5% CO2 incubator.
(§4) Rhabdomyosarcoma cells were treated with increasing concentrations of drugs and/or extracts for 72 hours in 96-well plates. MTT assay performed with the Cell Proliferation kit I (Roche Biochemicals, IN) was used to analyze cytotoxicity of individual drugs, extracts and their combinations (Ramachandran et al. 2012).
(§5) Mean inhibitory concentrations (ICs) and standard deviation estimates were calculated using Microsoft Excel software. The fraction of surviving cells at each concentration of drugs/combinations was used for the analysis of synergism/additiveness/antagonism between drugs/extracts by the CompuSyn software (ComboSyn, Inc., Paramus, N.J.). Synergism was evaluated by the Combination Index (CI) method of Chou and Talalay (1983) which is based on the median-effect principle. The CIs were calculated by the Chou-Talalay equations for multiple drug effects which take into account both potency (IC values) and shape (slope, m) of dose-effect curve (Ramachandran et al. 2010).

SJRH30 cell line = assay: RT-PCR gene expression, SJRH30; format: cell-based, human; conditions: SJRH30, 72 h
Description: as §1, §2

[3] = tested on: embryonal (RD) rhabdomyosarcoma cell line; assay: MTT cytotoxicity in embryonal rhabdomyosarcoma cells; format: cell-based, human; conditions: for IC50 / IC90: Homo sapiens, Rhabdomyosarcoma cell
Description: as §3, §4, §5

[4] = tested on: U-87MG nude mice xenografts; assay: Glioblastoma xenograft study; format: in vivo; conditions: vs olive oil control; IR 50 mg/kg intraperitoneally, CA (50/mg) gavage; p<0.05
Description: FIG. 16: Inhibition of tumor growth rate in U-87MG xenografts treated with olive oil (control), irinotecan (IR), CA, and IR+CA in combination. Xenografts (n=15/group) were administered intraperitoneally with olive oil (control) or IR (50 mg/kg), whereas CA (50/mg) was given gavage (introduction directly to the stomach). Tumor measurements are recorded twice per week and mean±SD estimates of tumor growth rate are plotted against days after treatment (*p<0.05; **p<0.01, ***p<0.001 as compared to control).
FIG. 17: Kaplan-Meier survival curve analysis of glioblastoma (U-87MG) nude mice xenografts treated with olive oil control, IR, CA, and IR+CA. The difference between treatment groups are significant (*p<0.05).

[5] = tested on: aRMS (SJRH30) nude mice xenografts; assay: Rhabdomyosarcoma xenograft study; format: in vivo
Description: Male athymic nude (nu/nu) mice of the NCrNUstrain (4 weeks old weighing 18-22 g) were purchased from Taconic Labs, German Town, N.Y. Tissue cultured SJRH30 aRMS cells (10^7 cells/site) in 0.1 ml of Hank's balanced salt solution were injected subcutaneously into the left and right flank of the nude mice with a 21-guage needle. When the tumors measured 0.5 cm^3, therapy was started with 20 mice in each group. Treatment groups included control (saline), 2 mg/kg VBL, 10 mg/kg CA and 2 mg/kg VBL+10 mg/kg CA. VBL was dissolved in saline and administered intraperitoneally on alternate days for a total of 10 injections starting on the first day of tumor measurement and treatment. CA was initially dissolved in ethanol and diluted in water so as to make 0.1% alcohol in it and given as drinking water for the entire duration of the study. Tumor size (length×width), body weight and survival data were collected twice a week. Tumor measurements were recorded using a vernier caliper and tumor volume and tumor growth rates were calculated according to the formula described earlier (Ramachandran et al. 2003; 2006). Tumor growth rate data was analyzed by one-way analysis of variance (ANOVA) with Dunnett's multiple comparison test. Survival data was analyzed with Kaplan Meier statistics using Graphpad Prism software and significant differences among treatment groups were calculated.

Structure (SMILES)	IC75 [1] [µg/mL]	IC50 ([1]; Homo sapiens) [µg/mL]	IC90 ([1]; Homo sapiens, read-out: IC90) [µg/mL]	expression of Bcl-2 (RD cell line)	expression of p53, Bax and Bak (RD cell line)	IC75 ([2]; SJRH30, 72 hours, MTT) [µg/mL]	expression of Bcl-2 (SJRH30 cell line)	expression of p53, Bax and Bak (SJRH30 cell line)	IC75 ([3]; RD, 72 hours, MTT) [µg/mL]	also measured
COc1cc(/C=C/C(=O)CC(=O)/C=C/c2ccc(O)c(OC)c2)ccc1O [CUR, curcumin]	51.00 ± 7.07	37.3 ± 4.04	> 200							IC90 [1]: >200 µg/mL; IC75 ([1]; listed as curcumin): 51.00 ± 7.07 µg/mL
O=P1(N(CCCl)CCCl)NCCCO1 (centres unmarked) [Cyclophosphamide (CP), Cyclophosphamide]				decrease	increase	>200	decrease	increase	>200	cell death ([2]; 200 μg/ml dose, aRMS cells): 45%; IC50 ([2]; SJRH30, 72 h): > 200 µg/mL; IC90 ([2]; SJRH30, 72 h): > 200 µg/mL; IC50 ([3]; 72 h): 172 ± 8.53 µg/mL; IC90 ([3]; 72 h): > 200 µg/mL
COc1cc([C@@H]2c3cc4c(cc3[C@@H](O[C@@H]3O[C@@H]5CO[C@@H](C)O[C@H]5[C@H](O)[C@H]3O)[C@H]3COC(=O)[C@H]23)OCO4)cc(OC)c1O [ETP, etoposide]	127.50 ± 3.53	6.5 ± 2.54	> 200							
CCc1c2c(nc3ccc(OC(=O)N4CCC(N5CCCCC5)CC4)cc13)-c1cc3c(c(=O)n1C2)COC(=O)[C@]3(O)CC [IR, irinotecan]										tumor growth rate [4]: significantly inhibited
Cn1nnc2c(C(N)=O)ncn2c1=O [TMZ, temozolomide]	>200	176 ± 10.5	> 200							
CC[C@]1(O)C[C@@H]2CN(CCc3c([nH]c4ccccc34)[C@@](C(=O)OC)(c3cc4c(cc3OC)N(C)[C@H]3[C@@](O)(C(=O)OC)[C@H](OC(C)=O)[C@]5(CC)C=CCN6CC[C@]43[C@@H]65)C2)C1 [Vinblastine (VBL), Vinblastine]				decrease	increase	36.110 ± 2.970	decrease	increase	0.200 ± 0.010	IC50 ([2]; SJRH30, 72 hours, MTT, read-out: IC50): 0.191 ± 0.01 µg/mL; IC90 ([2]; SJRH30, 72 hours, MTT, read-out: IC90): > 200 µg/mL; weight gain of xenografts / overall weight loss ([5]; mouse, in vivo): absence of any overall weight loss; tumor growth rate ([5]; vs saline control, VBL 2 mg/kg intraperitoneally, CA 10 mg/kg in drinking water, p<0.001 by ANOVA): significantly inhibited; IC50 ([3]; RD, 72 hours, MTT, read-out: IC50): 0.01 ± 0.002 µg/mL; IC90 ([3]; RD, 72 hours, MTT, read-out: IC90): > 200 µg/mL
